Experimental data: ChEMBL document CHEMBL1127719, “Synthesis and serotonergic activity of benzofuran and dihydrogenzofuran analogues of 5-carboxamidotryptamine” (Bioorg Med Chem Lett, 1994)

Columns and labels:
[1] = target: T1, 5-hydroxytryptamine receptor 3A (Rattus norvegicus, UniProt P35563); test: In Vitro Binding affinity againist 5-hydroxytryptamine 3 receptor by displacing [3H]-Q-ICS 205-930 from rat cortex homogenates
T1 sequence (P35563 whole entry): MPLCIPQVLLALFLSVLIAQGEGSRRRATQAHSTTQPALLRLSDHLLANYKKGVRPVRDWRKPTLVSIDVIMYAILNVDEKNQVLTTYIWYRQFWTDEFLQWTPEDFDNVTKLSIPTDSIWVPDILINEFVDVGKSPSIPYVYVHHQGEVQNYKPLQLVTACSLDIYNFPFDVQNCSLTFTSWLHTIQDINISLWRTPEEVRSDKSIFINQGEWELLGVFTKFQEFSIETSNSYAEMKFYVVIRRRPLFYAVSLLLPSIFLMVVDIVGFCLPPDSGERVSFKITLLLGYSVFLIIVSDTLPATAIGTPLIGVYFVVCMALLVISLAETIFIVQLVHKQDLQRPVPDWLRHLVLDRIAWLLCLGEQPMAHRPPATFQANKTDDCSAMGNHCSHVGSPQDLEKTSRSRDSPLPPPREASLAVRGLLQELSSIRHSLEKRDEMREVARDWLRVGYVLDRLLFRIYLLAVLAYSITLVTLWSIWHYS

Oryctolagus cuniculus [2] = species: Oryctolagus cuniculus; test: In Vitro functional activity in rabbit saphenous vein
Oryctolagus cuniculus [3] = species: Oryctolagus cuniculus; test: Relative maximum in rabbit by obtaining the maximum contraction relative to the maximum response with 1 uM 5-HT; assay type: functional
[4] = target: 5-hydroxytryptamine receptor 2A (Rattus norvegicus, UniProt P14842); test: In Vitro Binding affinity againist 5-HT2A receptor by displacing [3H]-DOB from rat cortex homogenates
Sequence of 5-hydroxytryptamine receptor 2A (P14842 whole entry): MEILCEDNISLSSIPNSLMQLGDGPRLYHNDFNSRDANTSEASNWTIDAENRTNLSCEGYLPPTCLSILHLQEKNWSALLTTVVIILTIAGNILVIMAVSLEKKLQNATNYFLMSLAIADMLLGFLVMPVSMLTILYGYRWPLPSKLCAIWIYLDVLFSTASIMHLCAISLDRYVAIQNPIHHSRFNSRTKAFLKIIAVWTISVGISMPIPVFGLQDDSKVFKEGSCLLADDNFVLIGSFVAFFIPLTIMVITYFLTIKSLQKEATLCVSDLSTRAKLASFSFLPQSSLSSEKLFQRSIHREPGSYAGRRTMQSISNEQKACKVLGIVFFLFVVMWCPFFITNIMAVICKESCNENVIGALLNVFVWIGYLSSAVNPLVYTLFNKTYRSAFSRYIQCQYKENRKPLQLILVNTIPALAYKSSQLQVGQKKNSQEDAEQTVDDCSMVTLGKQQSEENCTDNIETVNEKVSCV

Row | SMILES | IC50 [1] | EC50 (Oryctolagus cuniculus [2]) | Activity (Oryctolagus cuniculus [3]) | IC50 [4]
1 | NCCc1coc2ccc(C(N)=O)cc12 | 7.41 µM | 0.158 µM | 1.2 | 1.7 µM
2 | NCCc1c[nH]c2ccc(C(N)=O)cc12 |  | 0.0282 µM | 1.06 | 21.9 µM
3 | NCCC1COc2ccc(C(N)=O)cc21 (stereo unspecified) | 4.27 µM |  |  | > 10 µM
4 | CN(C)CCc1coc2ccc(C(N)=O)cc12 | 3.98 µM |  |  | 3.39 µM
